Measured values reported in patent US20250032458A1, “TREATMENT OF CANCER WITH AN FGFR KINASE INHIBITOR” (Kinnate Biopharma Inc., priority 2021, published 2025).
pEC50: −log10 of the molar value. Where two headings read alike, the source gives them in different places.

How the values were obtained:
[1] = test system: SNU-16 cells; assay: Cell proliferation, 5-day CellTiter-Glo; type: cell-based; conditions: Homo sapiens, 120 h; SNU-16, 5 days; read-out: 5-Day CTG EC50
[2] = Exposure in mice bearing RT-112 xenografts; conditions: mouse, in vivo, PO QD 2-15 mg/kg, 24-hour period following the last dose
Procedure: (§1) Three animals in the 15 mg/kg cohort lost >10% of their body weight during the course of treatment but recovered by end of study.

[3] = target: T1, TNK1 (Homo sapiens, UniProt Q13470); assay: Kinome selectivity screen by mobility shift assay (321 kinases); conditions: read-out: % Inhibition 1 μM
T1 sequence (Q13470 1-666): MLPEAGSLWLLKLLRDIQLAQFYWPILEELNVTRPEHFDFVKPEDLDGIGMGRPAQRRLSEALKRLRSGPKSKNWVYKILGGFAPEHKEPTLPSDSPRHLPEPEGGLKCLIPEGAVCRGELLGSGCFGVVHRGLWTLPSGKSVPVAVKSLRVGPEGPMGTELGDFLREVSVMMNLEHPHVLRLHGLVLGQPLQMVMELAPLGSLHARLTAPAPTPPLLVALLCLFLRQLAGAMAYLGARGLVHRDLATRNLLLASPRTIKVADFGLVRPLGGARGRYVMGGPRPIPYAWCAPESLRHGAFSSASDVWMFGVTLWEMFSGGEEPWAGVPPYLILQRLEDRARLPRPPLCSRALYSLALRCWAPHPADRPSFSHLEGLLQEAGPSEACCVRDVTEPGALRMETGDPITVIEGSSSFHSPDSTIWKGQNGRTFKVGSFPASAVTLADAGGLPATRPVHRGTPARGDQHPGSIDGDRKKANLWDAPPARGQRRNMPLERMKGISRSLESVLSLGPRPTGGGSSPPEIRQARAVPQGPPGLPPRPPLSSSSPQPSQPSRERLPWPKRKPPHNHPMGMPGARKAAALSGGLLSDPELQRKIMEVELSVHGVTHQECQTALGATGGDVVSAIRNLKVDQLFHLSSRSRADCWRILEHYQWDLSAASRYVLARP

[4] = Exposure in mice bearing SNU-16 xenografts; conditions: mouse, in vivo, PO QD 2-15 mg/kg, 24-hour period following the last dose
[5] = test system: RT-112 cells; assay: Cell proliferation, 5-day CellTiter-Glo; type: cell-based; conditions: Homo sapiens, 120 h; RT-112, 5 days; read-out: 5-Day CTG EC50
[6] = test system: KATO-III cells; assay: Cell proliferation, 5-day CellTiter-Glo; type: cell-based; conditions: Homo sapiens, 120 h, 5 days, read-out: 5-Day CTG EC50
[7] = test system: panel of 321 kinases; assay: Kinome selectivity screen by mobility shift assay (whole panel); conditions: 1 μM
[8] = test system: endogenous FGFR in five human tumor cell lines; conditions: read-out: EC50 values, inhibition of endogenous FGFR
[9] = Tolerability / body weight in RT-112 xenograft mice; type: in vivo; conditions: RT-112 model
Procedure: as §1

[10] = test system: RT-4 cells; assay: Cell proliferation, 5-day CellTiter-Glo; type: cell-based; conditions: Homo sapiens, 120 h; RT-4, 5 days; read-out: 5-Day CTG EC50
[11] = target: LOK (AKA STK10) (Homo sapiens, UniProt O94804); assay: Kinome selectivity screen by mobility shift assay (321 kinases); conditions: read-out: % Inhibition 1 μM
LOK (AKA STK10), sequence (O94804 whole entry): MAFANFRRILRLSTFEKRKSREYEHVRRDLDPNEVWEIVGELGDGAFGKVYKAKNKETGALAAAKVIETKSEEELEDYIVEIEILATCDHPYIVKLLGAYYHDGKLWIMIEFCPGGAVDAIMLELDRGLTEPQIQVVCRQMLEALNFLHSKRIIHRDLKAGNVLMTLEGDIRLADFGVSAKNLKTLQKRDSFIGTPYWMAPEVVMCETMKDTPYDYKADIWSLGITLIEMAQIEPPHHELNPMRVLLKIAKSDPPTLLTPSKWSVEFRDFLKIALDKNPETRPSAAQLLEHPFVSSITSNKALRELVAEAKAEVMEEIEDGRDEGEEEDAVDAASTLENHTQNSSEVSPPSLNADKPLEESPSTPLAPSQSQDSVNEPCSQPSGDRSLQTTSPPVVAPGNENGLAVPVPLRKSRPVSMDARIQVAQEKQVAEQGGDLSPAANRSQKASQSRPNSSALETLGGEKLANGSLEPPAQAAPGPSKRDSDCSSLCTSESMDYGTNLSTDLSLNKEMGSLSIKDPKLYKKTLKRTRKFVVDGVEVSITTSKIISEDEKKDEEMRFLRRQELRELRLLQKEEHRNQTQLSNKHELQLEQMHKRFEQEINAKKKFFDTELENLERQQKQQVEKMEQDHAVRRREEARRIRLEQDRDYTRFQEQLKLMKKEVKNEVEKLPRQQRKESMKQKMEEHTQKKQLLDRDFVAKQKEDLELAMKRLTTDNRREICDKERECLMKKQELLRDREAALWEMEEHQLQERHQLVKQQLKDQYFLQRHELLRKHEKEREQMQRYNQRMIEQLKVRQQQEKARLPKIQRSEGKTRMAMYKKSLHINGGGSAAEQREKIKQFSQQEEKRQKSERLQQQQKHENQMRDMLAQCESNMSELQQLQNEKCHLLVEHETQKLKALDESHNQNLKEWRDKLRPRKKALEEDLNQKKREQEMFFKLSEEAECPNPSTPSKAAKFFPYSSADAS

[12] = Tolerability / body weight in SNU-16 xenograft mice; type: in vivo; conditions: SNU-16 model, all tested doses and schedules; lack of significant body weight changes
From the text: […]. Treatment was initiated when tumor volumes were approximately 200-250 mm^3 (actual mean TV for all groups was 262 mm^3).

[13] = test system: human RT-112 urinary bladder transitional cell carcinoma xenograft (FGFR3-TACC3 fusion); conditions: for ΔT/ΔC / Final TV: 21 days; for Final TV: mean ± SEM
From the text: (§2) Groups and treatments were started when the mean tumor volume reached approximately 200-250 mm^3. Mice were assigned to respective groups based on their starting tumor volume and body weight such that the average values for both parameters were balanced for each treatment group.

[14] = test system: human SNU-16 gastric cancer xenograft (FGFR2 gene amplification); conditions: for ΔT/ΔC / Final TV: 21 days; for Final TV: mean ± SEM
From the text: as §2

[15] = test system: SW-780 cells; assay: Cell proliferation, 5-day CellTiter-Glo; type: cell-based; conditions: Homo sapiens, SW780, 120 h; SW-780, 5 days; read-out: 5-Day CTG EC50

`C=CC(=O)N1C[C@@H](n2nc(C#Cc3c(F)cc4c(ncn4C4CC4)c3F)c(C(N)=O)c2NC)C[C@@H]1COC` [Compound 1, 1-((3S,5R)-1-acryloyl-5-(methoxymethyl)pyrrolidin-3-yl)-3-((1-cyclopropyl-4,6-difluoro-1H-benzo[d]imidazol-5-yl)ethynyl)-5-(methylamino)-1H-pyrazole-4-carboxamide] showed a pEC50 [1] of 8.41, an AUC(0-t) [2] of 1320 to 9760 ng·h/mL and an inhibition at 1 µM [3] of 89.5%. The AUC(0-t) [4] was 1090 to 9760 ng·h/mL, the pEC50 [5] was 8.38 and the pEC50 [6] was 8.28. For the same compound, the “number of non-FGFR kinases with >40% inhibition” value [7] was 2, the pEC50 [8] was 8.22 to 9.00 and the average weight loss ([9]; 15 mg/kg QD) was 5.4%. For the same compound, the “animals that lost >10% of their body weight during treatment (recovered by end of study)” value ([9]; 15 mg/kg cohort (9 animals)) was “Three”, the tolerability ([9]; all of the tested doses (2, 5, 15 mg/kg QD)) was “well tolerated” and the pEC50 [10] was 8.22. The inhibition at 1 µM [11] was 64.6%, the tolerability [12] was “well tolerated” and the ΔT/ΔC ([13]; RT-112, 2 mg/kg QD PO) was 20%. The “Final TV” value ([13]; RT-112, 2 mg/kg QD PO) was 446 ± 49 mm^3, the “animals exhibiting tumor regression” value ([13]; RT-112, 5 mg/kg QD) was 4 of 9 and the ΔT/ΔC ([13]; RT-112, 5 mg/kg QD PO) was 9%. For the same compound, the “Final TV” value ([13]; RT-112, 5 mg/kg QD PO) was 343 ± 57 mm^3, the “animals exhibiting tumor regression” value ([13]; RT-112, 15 mg/kg QD) was 4 of 9 and the ΔT/ΔC ([13]; RT-112, 15 mg/kg QD PO) was 1%. For the same compound, the “Final TV” value ([13]; RT-112, 15 mg/kg QD PO) was 274 ± 48 mm^3, the ΔT/ΔC ([14]; SNU-16, 2 mg/kg QD PO) was 31% and the “Final TV” value ([14]; SNU-16, 2 mg/kg QD PO) was 497 ± 22 mm^3. For the same compound, the ΔT/ΔC ([14]; SNU-16, 5 mg/kg QD PO) was 19%, the “Final TV” value ([14]; SNU-16, 5 mg/kg QD PO) was 410 ± 20 mm^3 and the ΔT/ΔC ([14]; SNU-16, 15 mg/kg QD PO) was 7%. For the same compound, the “Final TV” value ([14]; SNU-16, 15 mg/kg QD PO) was 313 ± 13 mm^3, the “animals with tumor regression” value ([14]; SNU-16, 15 mg/kg QD cohort) was “one” and the pEC50 [15] was 8.38.
